Source: PMC10886690, “Synthesis, Characterization, Antioxidant, and Anticancer Activity against Colon Cancer Cells of Some Cinnamaldehyde-Based Chalcone Derivatives” (Biomolecules, 2024)

What was measured:
[1] = DPPH free-radical scavenging (antioxidant) assay; settings: 40–200 µM in methanol, versus ascorbic acid
Experimental: The potential of several compounds to scavenge DPPH free radicals was quantified employing a colorimetric approach. Various doses of all tested compounds (3a–3k) were prepared in methanol (40–200 µM), and standard solutions of ascorbic acid (40–200 µM) were made by dissolving the compound in methanol. After determining the optimal concentration of each compound and ascorbic acid, the solutions were supplemented with DPPH. The radical scavenging capacity (RSC) was calculated by measuring the absorbance at 517 nm and using the Formula (1):% DPPH RSC = (Abs. of control − Abs. of sample or standard)/Abs. of control × 100(1)

Caco-2 cells = experiment: LDH release ELISA in treated Caco-2 cells; type: cell-based, human; settings: compound-treated Caco-2 cells, p < 0.001
Experimental: The amount of lactate dehydrogenase enzyme (LDH) secreted by compound 3e-treated Caco-2 cells was measured using the double-antibody-sandwich ELISA method (Sun-Red, Cat. N. 201-28-0094) to confirm the cytotoxic impact of the tested chemical on Caco-2 cells. Specifically, 40 µL of the supernatant obtained from centrifuging the Caco-2 cells that had been treated with the 3e compound was added to the test wells. Next, LDH-antibody (10 µL) and Streptavidin-HRP (50 µL) were transferred to every well. After 60 min of incubation at 37 °C, the 96-well plate was shaken gently. […] The 96-well plate was then gently shaken and left to incubate for 60 min at 37 °C. The plates were then washed, and each test well received 50 µL of chromogen solution A and 50 µL of chromogen solution B. The plates were then incubated at 37 °C, and darkened for 10 min. Stop solution (50 µL) was then applied to each well. Once testing was complete, 450 nm was used to determine the plate’s optical density (OD). The amount of released LDH was calculated using the standard curve that had been previously established.

BAX = experiment: ELISA of BAX protein in Caco-2 cells; type: cell-based, human; settings: Caco-2, IC50 dose
Experimental: (§1) Protein expression levels of the under investigation genes were evaluated in Caco-2 cells treated with compound 3e using an ELISA assay. Three different ELISA kits were used: one for BAX (ab199080), one for cleaved Caspase-3 (ab220655), and one for BCL-2 (ab272102), which were supplied via Abcam (Cambridge, UK). All of these kits are based on a single, highly sensitive sandwich enzyme assay that lasts 90 min and uses a precoated ELISA plate and an anti-tag antibody to capture antibodies that have been labeled with an affinity tag. The tested compound 3e-treated cultured Caco-2 cells were centrifuged, the resulting pellets were discarded, and the residual supernatant was mixed with an antibody cocktail solution in a 96-well ELISA plate. The plate was then incubated for 1 h at room temperature. After thoroughly rinsing the plate in wash buffer (1×), in each well, a ten min incubation period of tetramethylbenzidine substrate solution was conducted. Following that, the plate was stored in a dim area. The intensity at 450 nm was then measured with a microplate reader immediately after a stop solution was added.

cleaved Caspase-3 = experiment: ELISA of cleaved Caspase-3 protein in Caco-2 cells; type: cell-based, human; settings: Caco-2, IC50 dose
Experimental: as §1

BCL-2 = experiment: ELISA of BCL-2 protein in Caco-2 cells; type: cell-based, human; settings: Caco-2, IC50 dose
Experimental: as §1

O=C(/C=C/C=C/c1ccccc1)c1ccc[nH]1 [3e, (2E,4E)-5-phenyl-1-(1H-pyrrol-2-yl)penta-2,4-dien-1-one]
antioxidant activity (DPPH scavenging, IC50) compared with the other compounds [1]: highest effective antioxidant activity | LDH levels versus untreated Caco-2 cells (Caco-2 cells): considerably increased | BAX protein level versus untreated cells (BAX): increased levels | cleaved Caspase-3 protein level versus untreated cells (cleaved Caspase-3): increased levels | BCL-2 protein level versus untreated cells (BCL-2): decreased
